According to patent US20240218022A1, “ANTI-VISTA MACROCYCLIC PEPTIDES AND COMPOSITIONS” (BRISTOL-MYERS SQUIBB COMPANY, priority 2022, published 2024):
Where two headings read alike, the source gives them in different places. Blank lines part the entries; values can stand above or below the compound they belong to. Starred links: 1 amine or outer side, 2 acyl side, 3 side chain; linkers in the order of their positions; H or OH if unused. Positions of bridges follow the written chain, without caps; N, C: chain ends. Non-standard residues stand in square brackets, D forms with d. Residues, ends and D or L forms follow the SMILES beside them. ξ: configuration not given here. Phe(4-COOH) = N[C@@H](Cc1ccc(C(=O)O)cc1)C(=O)O; Phe(3-Me) = Cc1cccc(C[C@H](N)C(=O)O)c1; γGlu = O=C(O)[C@H](CCC(=O)[*:2])N[*:1]; 2Nal = N[C@@H](Cc1ccc2ccccc2c1)C(=O)O; βAsp = O=C(O)[C@H](CC(=O)[*:2])N[*:1]; Val(3-OH) = CC(C)(O)[C@H](N)C(=O)O; NMeL = CN[C@@H](CC(C)C)C(=O)O; Ahp(2) = CCCCC[C@H](N)C(=O)O; NMeNle = CCCC[C@H](NC)C(=O)O; Tle = CC(C)(C)[C@H](N)C(=O)O; NHexGly = CCCCCCNCC(=O)O; Nle = CCCC[C@H](N)C(=O)O; Orn = NCCC[C@H](N)C(=O)O; Aun = NCCCCCCCCCCC(=O)O; ξD = NC(CC(=O)O)C(=O)O; AEEA = NCCOCCOCC(=O)O

Biological target: T1, mouse VISTA (mVISTA) (Mus musculus, UniProt Q9D659)
T1 construct: expressed in transfected cells; host or cells: Human embryonic kidney 293T cells
T1 sequence (Q9D659 33-308): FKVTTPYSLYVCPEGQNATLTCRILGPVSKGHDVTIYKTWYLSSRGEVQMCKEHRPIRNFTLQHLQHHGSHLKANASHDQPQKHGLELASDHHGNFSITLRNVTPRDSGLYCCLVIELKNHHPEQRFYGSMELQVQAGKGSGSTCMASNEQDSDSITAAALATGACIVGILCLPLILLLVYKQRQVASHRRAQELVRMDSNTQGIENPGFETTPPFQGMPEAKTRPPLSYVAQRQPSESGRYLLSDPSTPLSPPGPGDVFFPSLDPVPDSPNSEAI
Experiment: Cell-Based Binding High-Content Assay For mVISTA (HC CBA mVISTA)
Experimental: Cell-Based Binding High-Content Assay For mVISTA
Human embryonic kidney 293T cells (293T) expressing mouse VISTA (mVISTA) were used for the assessment of compounds competing with the binding of a biotinylated peptide. Cryopreserved cells were thawed in a 37° C. water bath and incubated overnight at a 37° C./5% CO2 incubator in assay culture media DMEM (Life Technologies Inc. Cat. No. 11995-126) supplemented with 10% (v/v) FBS (Sigma, Cat. No. F4135), 1× Penicillin/Streptomycin (Life Technologies Inc. Cat. No. 15140-122). Cells were harvested, washed and resuspended in DMEM media […]. To test compounds under “no-wash” condition, cells were seeded into PDL-coated 384 well plates (Corning, Cat. No. 356663) at 4,000 cells/20 μL. After incubating the cell plates for two hours at a 37° C./5% CO2 incubator, 125 nL of test compound was added using an ECHO. Alternatively, to test compounds under “wash” condition, test compounds were added first, followed by addition of 20 μL cells at a density of 4000 cells/well. After incubation for an hour, the media was removed, followed by addition of 20 μL of fresh media ( ), and plates were then incubated for another hour. To plates either under “no wash” or “wash” condition, the biotinylated peptide was added to a final concentration of 2 nM, and plates were incubated at room temperature for 30 minutes. Fifteen (15) μL of Alexa 647 conjugated Streptavidin (Life Tech, Cat. No. S21374), suspended at 2 μg/ml in media, was added to the assay plate and incubate for 30 minutes. Cells were fixed by adding 15 μL of formaldehyde at a final concentration of 8% (w/v) (Sigma Cat. No. 252549), 20 μg/mL Hoechst (Thermo Scientific Cat. No. 62249) in PBS for 10 minutes at room temperature. The plates were washed 3 times in dPBS, sealed, and read on a CellInsight NXT High Content Screening Platform IC903000 (Thermo Scientific). The 50% effective concentration (IC50) was calculated using the four-parameter logistic formula y=A+((B−A)/(1+((C/x)^D))), where A and B denote minimal and maximal % inhibition, respectively, C is the EC50, D is hill slope and x represent compound concentration.

[1] = cell-based binding high-content assay, mVISTA, read-out: HC CBA miPr ISTA IC50
[2] = 293T cells expressing mouse VISTA, competition with biotinylated peptide (2 nM), read-out: CBA mVISTA IC50

IC50 (read-out: HC CBA mVISTA IC50): 39 nM
SMILES: CCCCCCN1CC(=O)N[C@@H](Cc2ccc(O)cc2)C(=O)N[C@@H](CCCCC)C(=O)N[C@@H](CC(N)=O)C(=O)N[C@@H](CCCN)C(=O)N(C)[C@@H](CCCC)C(=O)N[C@@H](CCCCC)C(=O)N2CCC[C@H]2C(=O)N[C@@H](C(C)(C)C)C(=O)N[C@@H](CO)C(=O)N[C@H](C(=O)N[C@@H](CCC(=O)NCCCCCCCCCCC(=O)O)C(=O)O)CSCC(=O)N[C@@H](Cc2ccccc2)C(=O)N[C@@H](Cc2c[nH]c3ccccc23)C(=O)N[C@@H](CC(=O)O)C1=O [Example 2144] ({CH2CO}-FWD[NHexGly]Y[Ahp(2)]N[Orn][NMeNle][Ahp(2)]P[Tle]SC[γGlu][Aun]-OH; thioether N-14)

IC50 (read-out: HC CBA mVISTA IC50): 50.4 nM
SMILES: CCCCCCN1CC(=O)N[C@@H](Cc2ccc(O)cc2)C(=O)N[C@@H](CCCC)C(=O)N[C@@H](CC(N)=O)C(=O)N[C@@H](CCCNC(=N)N)C(=O)N(C)[C@@H](CCCC)C(=O)N[C@@H](CCCCC)C(=O)N2CCC[C@H]2C(=O)N[C@@H](C(C)(C)O)C(=O)N[C@@H](CO)C(=O)N[C@H](C(=O)NCCOCCOCC(=O)N[C@@H](CCC(=O)NCCOCCOCC(=O)NCCCCCCCCCCC(=O)O)C(=O)O)CSCC(=O)N[C@@H](Cc2ccccc2)C(=O)N[C@@H](Cc2c[nH]c3ccccc23)C(=O)N[C@@H](CC(=O)O)C1=O [compound 2250] ({CH2CO}-FWD[NHexGly]Y[Nle]NR[NMeNle][Ahp(2)]P[Val(3-OH)]SC[AEEA][γGlu][AEEA][Aun]-OH; thioether N-14)

IC50 (read-out: HC CBA mVISTA IC50): 13.9 nM
SMILES: CCCCCCN1CC(=O)N[C@@H](Cc2ccc(O)cc2)C(=O)N[C@@H](CCCC)C(=O)N[C@@H](CC(=O)O)C(=O)N[C@@H](CCCNC(=N)N)C(=O)N[C@@H](CC(C)C)C(=O)N[C@@H](CCCCC)C(=O)N2CCC[C@H]2C(=O)N[C@@H](C(C)C)C(=O)N[C@@H](CC(=O)O)C(=O)N[C@H](C(=O)NC(CC(=O)O)C(N)=O)CSCC(=O)N[C@@H](Cc2ccccc2)C(=O)N[C@@H](Cc2cccc(C)c2)C(=O)N[C@@H](CC(=O)O)C1=O (some centres unmarked) [compound 1327] ({CH2CO}-F[Phe(3-Me)]D[NHexGly]Y[Nle]DRL[Ahp(2)]PVDC[ξD]-NH2; thioether N-14)

IC50 [1]: 15.9 nM
SMILES: CCCCCCN1CC(=O)N[C@@H](Cc2ccc(O)cc2)C(=O)N[C@@H](CCCC)C(=O)N[C@@H](CC(N)=O)C(=O)N[C@@H](CCCNC(=N)N)C(=O)N(C)[C@@H](CCCC)C(=O)N[C@@H](CCCCC)C(=O)N2CCC[C@H]2C(=O)N[C@@H](C(C)C)C(=O)N[C@@H](CC(=O)O)C(=O)N[C@H](C(=O)NCC(=O)NCCOCCOCC(=O)N[C@@H](CC(=O)O)C(=O)NCCOCCOCC(=O)NCCCCCCCCCCC(=O)O)CSCC(=O)N[C@@H](Cc2ccccc2)C(=O)N[C@@H](Cc2c[nH]c3ccccc23)C(=O)N[C@@H](CC(=O)O)C1=O [compound 2010] ({CH2CO}-FWD[NHexGly]Y[Nle]NR[NMeNle][Ahp(2)]PVDCG[AEEA]D[AEEA][Aun]-OH; thioether N-14)

IC50 [2]: 24.6 nM
SMILES: CCCCCCN1CC(=O)N[C@@H](Cc2ccc(O)cc2)C(=O)N[C@@H](CCCCC)C(=O)NCC(=O)N[C@@H](CCCNC(=N)N)C(=O)N(C)[C@@H](CCCC)C(=O)N[C@@H](CCCCC)C(=O)N2CCC[C@H]2C(=O)N[C@@H](C(C)C)C(=O)N[C@@H](CO)C(=O)N[C@H](C(=O)NCC(N)=O)CSCC(=O)N[C@@H](Cc2ccccc2)C(=O)N[C@@H](Cc2ccc(O)cc2)C(=O)N[C@@H](CC(=O)O)C1=O [Example 1079] ({CH2CO}-FYD[NHexGly]Y[Ahp(2)]GR[NMeNle][Ahp(2)]PVSCG-NH2; thioether N-14)

IC50 [1]: 48.8 nM
SMILES: CCCCCCN1CC(=O)N[C@@H](Cc2ccc(O)cc2)C(=O)N[C@@H](CC(C)C)C(=O)N[C@@H](CC(N)=O)C(=O)N[C@@H](CCCN)C(=O)N(C)[C@@H](CCCC)C(=O)N[C@@H](CCCCC)C(=O)N2CCC[C@H]2C(=O)N[C@@H](C(C)(C)C)C(=O)N[C@@H](CO)C(=O)N[C@H](C(=O)N[C@@H](CC(=O)NCCOCCOCC(=O)N[C@@H](CC(=O)O)C(=O)NCCOCCOCC(=O)NCCCCCCCCCCC(=O)O)C(=O)O)CSCC(=O)N[C@@H](Cc2ccc(C(=O)O)cc2)C(=O)N[C@@H](Cc2ccc(O)cc2)C(=O)N[C@@H](CC(=O)O)C1=O [compound 2047] ({CH2CO}-[Phe(4-COOH)]YD[NHexGly]YLN[Orn][NMeNle][Ahp(2)]P[Tle]SC[βAsp][AEEA]D[AEEA][Aun]-OH; thioether N-14)

IC50 (cell-based binding high-content assay, mVISTA, read-out: HC CBA miPrISTA IC50): 36.6 nM
SMILES: CCCCCCN1CC(=O)N[C@@H](Cc2ccc(O)cc2)C(=O)N[C@@H](C)C(=O)N[C@@H](CC(N)=O)C(=O)N[C@@H](CCCNC(=N)N)C(=O)N(C)[C@@H](CCCC)C(=O)N[C@@H](CCCCC)C(=O)N2CCC[C@H]2C(=O)N[C@@H](C(C)(C)C)C(=O)N[C@@H](CO)C(=O)N[C@H](C(=O)N[C@@H](CC(=O)NCCOCCOCC(=O)N[C@@H](CC(=O)O)C(=O)NCCOCCOCC(=O)NCCCCCCCCCCC(=O)O)C(=O)O)CSCC(=O)N[C@@H](Cc2ccccc2)C(=O)N[C@@H](Cc2c[nH]c3ccccc23)C(=O)N[C@@H](CC(=O)O)C1=O [compound 2098] ({CH2CO}-FWD[NHexGly]YANR[NMeNle][Ahp(2)]P[Tle]SC[βAsp][AEEA]D[AEEA][Aun]-OH; thioether N-14)

IC50 (read-out: HC CBA mVISTA IC50): 19.1 nM
SMILES: CCCCCCN1CC(=O)N[C@@H](Cc2ccc(O)cc2)C(=O)N[C@@H](CCCC)C(=O)N[C@@H](CC(N)=O)C(=O)N[C@@H](CCCNC(=N)N)C(=O)N(C)[C@@H](CCCC)C(=O)N[C@@H](CCCCC)C(=O)N2CCC[C@H]2C(=O)N[C@@H](C(C)C)C(=O)N[C@@H](CC(=O)O)C(=O)N[C@H](C(=O)N[C@@H](CCCN)C(=O)N[C@@H](CCC(N)=O)C(=O)O)CSCC(=O)N[C@@H](Cc2ccc3ccccc3c2)C(=O)N[C@@H](Cc2c[nH]c3ccccc23)C(=O)N[C@@H](CC(=O)O)C1=O [compound 1140] ({CH2CO}-[2Nal]WD[NHexGly]Y[Nle]NR[NMeNle][Ahp(2)]PVDC[Orn]Q-OH; thioether N-14)

IC50 (cell-based binding high-content assay, mVISTA, the 15th table, read-out: HC CBA mVISTA IC50): 3.2 nM
SMILES: CCCCCCN1CC(=O)N[C@@H](Cc2ccc(O)cc2)C(=O)N[C@@H](CCCC)C(=O)N[C@@H](CC(N)=O)C(=O)N[C@@H](CCCNC(=N)N)C(=O)N(C)[C@@H](CC(C)C)C(=O)N[C@@H](CCCCC)C(=O)N2CCC[C@H]2C(=O)N[C@@H](C(C)C)C(=O)N[C@@H](CC(=O)O)C(=O)N[C@H](C(=O)NCC(=O)O)CSCC(=O)N[C@@H](Cc2ccc3ccccc3c2)C(=O)N[C@@H](Cc2c[nH]c3ccccc23)C(=O)N[C@@H](CC(=O)O)C1=O [compound 1239] ({CH2CO}-[2Nal]WD[NHexGly]Y[Nle]NR[NMeL][Ahp(2)]PVDCG-OH; thioether N-14)

IC50 (read-out: HC CBA mVISTA IC50): 26.5 nM
SMILES: CCCCCCN1CC(=O)N[C@@H](Cc2ccc(O)cc2)C(=O)N[C@@H](CCCCC)C(=O)N[C@@H](CC(N)=O)C(=O)N[C@@H](CCCN)C(=O)N(C)[C@@H](CCCC)C(=O)N[C@@H](CCCCC)C(=O)N2CCC[C@H]2C(=O)N[C@@H](C(C)(C)C)C(=O)N[C@@H](CC(=O)O)C(=O)N[C@H](C(=O)N[C@@H](CCC(=O)NCCCCCCCCCCC(=O)O)C(=O)O)CSCC(=O)N[C@@H](Cc2ccccc2)C(=O)N[C@@H](Cc2ccc(O)cc2)C(=O)N[C@@H](CC(=O)O)C1=O [Example 2141] ({CH2CO}-FYD[NHexGly]Y[Ahp(2)]N[Orn][NMeNle][Ahp(2)]P[Tle]DC[γGlu][Aun]-OH; thioether N-14)

IC50 [2]: 17.7 nM
SMILES: CCCCCCN1CC(=O)N[C@@H](Cc2ccc(O)cc2)C(=O)N[C@@H](CCCC)C(=O)N[C@@H](CC(=O)O)C(=O)N[C@@H](CCCNC(=N)N)C(=O)N(C)[C@@H](CCCC)C(=O)N[C@@H](CCCCC)C(=O)N2CCC[C@H]2C(=O)N[C@@H](C(C)C)C(=O)N[C@@H](CC(=O)O)C(=O)N[C@H](C(=O)N[C@@H](CCC(=O)O)C(N)=O)CSCC(=O)N[C@@H](Cc2ccccc2)C(=O)N[C@@H](Cc2ccc(O)cc2)C(=O)N[C@@H](CC(=O)O)C1=O [Example 1078] ({CH2CO}-FYD[NHexGly]Y[Nle]DR[NMeNle][Ahp(2)]PVDCE-NH2; thioether N-14)
